Literature values as cited in patent US20060160230A1, “Wipes and methods for removal of metal contamination from surfaces” (The Government of the United States of America as …, priority 2005, published 2006).

Key:
[1] = 10% citric acid lotion applied topically for a three month period (Bernstein et al. 1997)
[2] = 1999; rinse-off cosmetic products

Molecule	clinical signs of adverse effects [1]	safety conclusion of CIR Expert Panel [2]
O=C(O)CC(O)(CC(=O)O)C(=O)O [citric acid]	No clinical signs of adverse effects	–
isostearamidopropyl morpholine lactate [ISML]	–	considered safe for use in rinse-off cosmetic products
